# The source made the active and inactive calls.
# Legend:
# [1] = molecular target: T1, G-protein coupled receptor 35 (Homo sapiens, UniProt Q9HC97); test: SAR analysis of Antagonists of the GPR35 Receptor using an Image-Based Assay - Set 5. [Related pubchem assays (depositor defined):AID2058, AID2079]; assay type: functional
# [2] = molecular target: T1, G-protein coupled receptor 35; test: SAR Analysis for the identification of Selective Antagonists of ERK1/2 Activity in GPR35-Overexpressing U2OS Cells - Set 2. [Related pubchem assays (depositor defined):AID2058, AID2079]; assay type: functional, cell-based
# [3] = molecular target: G-protein coupled receptor 55 (Homo sapiens, UniProt Q9Y2T6); test: SAR Analysis of Selective Antagonists of GPR55 using an Image-Based Assay - Set 3. [Related pubchem assays (depositor defined):AID2058, AID2079]; assay type: functional
# [4] = molecular target: Envelope glycoprotein gp160 (Human immunodeficiency virus 1, UniProt Q6QLK5); test: cell-free HIV fusion peptide-binding blockers – biochemical, uHTS, fluorescence dequenching, […] (AID 1986)
# [5] = system: Streptococcus sp. 'group A'; test: Streptococcus pyogenes SK(-)GAS viability under kanamycin – luminescence, BacTiterGlo, confirmation, counter-screen for streptokinase expression inhibitor project, dose response (AID 1900); assay type: functional, organism-based
# [6] = CCR5-tropic HIV-1 fusion blockers – cell-based, CCR5-tropic Env, dose response (AID 2279); assay type: functional
# [7] = system: Streptococcus; test: GAS UMAA2166 growth inhibition – luminescence, BacTiterGlo, counter-screen for streptokinase expression inhibitor project, dose response (AID 1915); assay type: functional, organism-based;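 further: potency for reduction of bacterial viability or growth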
# [8] = molecular target: T2, Long-chain-fatty-acid--AMP ligase FadD28 (Mycobacterium tuberculosis, UniProt P9WQ59); test: Fluorescence polarization aasay to screen for inhibitors that compete for the binding of FadD28 to a bisubstrate Measured in Biochemical System Using Plate Reader - 2147-01_Inhibitor_Dose_CherryPick_Activity.; assay type: functional, Mycobacterium tuberculosis H37Rv
# T2 sequence (P9WQ59 whole entry): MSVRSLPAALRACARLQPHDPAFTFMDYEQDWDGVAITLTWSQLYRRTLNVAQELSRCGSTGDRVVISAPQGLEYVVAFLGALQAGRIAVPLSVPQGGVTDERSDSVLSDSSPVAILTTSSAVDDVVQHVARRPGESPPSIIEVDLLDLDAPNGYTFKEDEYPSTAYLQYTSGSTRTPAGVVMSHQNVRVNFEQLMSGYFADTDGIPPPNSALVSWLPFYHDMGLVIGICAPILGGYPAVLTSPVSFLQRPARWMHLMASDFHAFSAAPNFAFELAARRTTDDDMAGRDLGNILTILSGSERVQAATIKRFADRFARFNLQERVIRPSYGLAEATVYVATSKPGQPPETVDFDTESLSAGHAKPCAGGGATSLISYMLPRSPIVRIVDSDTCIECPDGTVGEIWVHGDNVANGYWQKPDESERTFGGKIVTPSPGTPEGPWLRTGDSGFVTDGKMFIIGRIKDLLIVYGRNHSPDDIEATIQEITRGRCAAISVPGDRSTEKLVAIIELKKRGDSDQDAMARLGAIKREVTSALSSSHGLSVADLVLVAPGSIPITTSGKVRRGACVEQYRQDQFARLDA
# [9] = molecular target: T3, Tyrosine-protein phosphatase non-receptor type 7 (Homo sapiens, UniProt P35236); assay type: functional
# T3 sequence (P35236 whole entry): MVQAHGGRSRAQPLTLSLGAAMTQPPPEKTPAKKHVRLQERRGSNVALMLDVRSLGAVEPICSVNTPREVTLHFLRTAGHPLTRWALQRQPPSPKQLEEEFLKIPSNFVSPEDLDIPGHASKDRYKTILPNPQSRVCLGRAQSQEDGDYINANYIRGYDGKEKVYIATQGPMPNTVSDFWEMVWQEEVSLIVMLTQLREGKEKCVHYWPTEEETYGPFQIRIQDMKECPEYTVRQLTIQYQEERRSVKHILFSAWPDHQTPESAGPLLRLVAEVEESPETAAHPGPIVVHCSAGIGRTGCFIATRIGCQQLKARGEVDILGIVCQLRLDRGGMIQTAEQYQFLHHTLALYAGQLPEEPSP
# [10] = molecular target: T4, Tyrosine-protein phosphatase non-receptor type 22 (Homo sapiens, UniProt Q9Y2R2); test: PTPN22 lymphoid phosphatase activity blockers – biochemical, fluorescence intensity, uHTS (AID 1779)
# T4 sequence (Q9Y2R2 whole entry): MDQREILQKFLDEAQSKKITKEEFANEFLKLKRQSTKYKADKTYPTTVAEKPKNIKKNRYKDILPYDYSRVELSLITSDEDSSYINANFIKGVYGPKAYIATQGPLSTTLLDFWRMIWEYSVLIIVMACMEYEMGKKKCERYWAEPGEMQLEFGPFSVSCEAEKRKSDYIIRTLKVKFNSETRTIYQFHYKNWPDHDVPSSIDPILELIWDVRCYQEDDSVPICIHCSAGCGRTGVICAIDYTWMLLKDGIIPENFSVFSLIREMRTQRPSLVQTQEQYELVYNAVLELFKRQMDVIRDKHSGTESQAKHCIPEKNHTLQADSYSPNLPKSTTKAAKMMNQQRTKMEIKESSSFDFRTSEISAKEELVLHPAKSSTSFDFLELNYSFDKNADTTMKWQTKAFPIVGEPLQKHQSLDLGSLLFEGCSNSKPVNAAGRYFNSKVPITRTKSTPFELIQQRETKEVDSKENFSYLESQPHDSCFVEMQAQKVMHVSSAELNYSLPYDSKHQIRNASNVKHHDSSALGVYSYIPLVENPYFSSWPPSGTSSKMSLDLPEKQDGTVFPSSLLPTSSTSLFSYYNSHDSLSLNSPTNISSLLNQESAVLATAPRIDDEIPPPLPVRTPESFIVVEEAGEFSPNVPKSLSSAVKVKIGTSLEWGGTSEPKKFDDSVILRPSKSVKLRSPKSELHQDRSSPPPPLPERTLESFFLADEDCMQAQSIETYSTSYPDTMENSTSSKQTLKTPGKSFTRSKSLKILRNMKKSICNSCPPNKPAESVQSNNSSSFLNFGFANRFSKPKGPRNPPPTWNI
# [11] = molecular target: T4, Tyrosine-protein phosphatase non-receptor type 22; assay type: functional
# [12] = molecular target: T4, Tyrosine-protein phosphatase non-receptor type 22; assay type: functional; remark: listed apart in the source
# [13] = molecular target: T5, Carboxy-terminal domain RNA polymerase II polypeptide A small phosphatase 1 (Homo sapiens, UniProt Q9GZU7); test: CTDSP1 inhibitors, concentration-response, biochemical, absorbance readout, ultra-high-throughput screen actives (AID 540297); assay type: functional
# T5 sequence (Q9GZU7 whole entry): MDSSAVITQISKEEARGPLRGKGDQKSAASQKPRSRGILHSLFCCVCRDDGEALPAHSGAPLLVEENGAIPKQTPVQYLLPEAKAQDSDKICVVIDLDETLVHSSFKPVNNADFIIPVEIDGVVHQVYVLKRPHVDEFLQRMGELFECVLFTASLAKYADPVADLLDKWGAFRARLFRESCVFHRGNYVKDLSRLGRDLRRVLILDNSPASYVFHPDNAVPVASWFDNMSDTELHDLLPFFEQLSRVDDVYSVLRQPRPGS
# [14] = system: Vero; test: Vero 76 cell viability after compound exposure – Vero 76 cells, synthesized analogs, cytotoxicity control for West Nile virus antiviral project, SAR follow-up (AID 2414); assay type: functional; conditions: Chlorocebus sabaeus
# [15] = system: Vero; test: Vero cell viability after compound exposure – synthesized analogs, set II, cytotoxicity control for West Nile virus antiviral project, SAR follow-up (AID 2402); assay type: functional; conditions: Chlorocebus sabaeus
# [16] = system: Vero; test: host cell viability loss, Vero E6 – synthesized analogs, cytotoxicity control for West Nile virus antiviral project, SAR follow-up (AID 2244); assay type: functional; conditions: Chlorocebus sabaeus
# [17] = A Cell Based Assay for the Identification of Probe candidate Compounds with Anti- Venezuelan Equine Encephalitis virus. [Related pubchem assays: 2409, 2419, 1621, 2238, 2405, 2024, 2065, 2402, 2414, 1635, 1650, 2244 ]; assay type: functional
# [18] = system: Vero; test: antiviral protection of cells from WNV – synthesized analogs, SAR follow-up (AID 2238); assay type: functional, cell-based; conditions: Chlorocebus sabaeus
# [19] = system: Vero; test: antiviral activity against WNV, CPE read-out – cell-based (AID 2419); assay type: functional; conditions: Chlorocebus sabaeus
# [20] = system: Vero; test: inhibition of WNV-induced cytopathic effect – cell-based, CPE readout (AID 1621); assay type: functional; conditions: Chlorocebus sabaeus
# [21] = molecular target: T6, Aminopeptidase N (Plasmodium falciparum FcB1/Columbia, UniProt O96935); test: malaria alanyl aminopeptidase activity blockers – biochemical, fluorogenic H-Leu-NHMec substrate, 1536-well (AID 1445); design: species or system Plasmodium falciparum 3D7, 3D7
# T6 sequence (O96935 whole entry): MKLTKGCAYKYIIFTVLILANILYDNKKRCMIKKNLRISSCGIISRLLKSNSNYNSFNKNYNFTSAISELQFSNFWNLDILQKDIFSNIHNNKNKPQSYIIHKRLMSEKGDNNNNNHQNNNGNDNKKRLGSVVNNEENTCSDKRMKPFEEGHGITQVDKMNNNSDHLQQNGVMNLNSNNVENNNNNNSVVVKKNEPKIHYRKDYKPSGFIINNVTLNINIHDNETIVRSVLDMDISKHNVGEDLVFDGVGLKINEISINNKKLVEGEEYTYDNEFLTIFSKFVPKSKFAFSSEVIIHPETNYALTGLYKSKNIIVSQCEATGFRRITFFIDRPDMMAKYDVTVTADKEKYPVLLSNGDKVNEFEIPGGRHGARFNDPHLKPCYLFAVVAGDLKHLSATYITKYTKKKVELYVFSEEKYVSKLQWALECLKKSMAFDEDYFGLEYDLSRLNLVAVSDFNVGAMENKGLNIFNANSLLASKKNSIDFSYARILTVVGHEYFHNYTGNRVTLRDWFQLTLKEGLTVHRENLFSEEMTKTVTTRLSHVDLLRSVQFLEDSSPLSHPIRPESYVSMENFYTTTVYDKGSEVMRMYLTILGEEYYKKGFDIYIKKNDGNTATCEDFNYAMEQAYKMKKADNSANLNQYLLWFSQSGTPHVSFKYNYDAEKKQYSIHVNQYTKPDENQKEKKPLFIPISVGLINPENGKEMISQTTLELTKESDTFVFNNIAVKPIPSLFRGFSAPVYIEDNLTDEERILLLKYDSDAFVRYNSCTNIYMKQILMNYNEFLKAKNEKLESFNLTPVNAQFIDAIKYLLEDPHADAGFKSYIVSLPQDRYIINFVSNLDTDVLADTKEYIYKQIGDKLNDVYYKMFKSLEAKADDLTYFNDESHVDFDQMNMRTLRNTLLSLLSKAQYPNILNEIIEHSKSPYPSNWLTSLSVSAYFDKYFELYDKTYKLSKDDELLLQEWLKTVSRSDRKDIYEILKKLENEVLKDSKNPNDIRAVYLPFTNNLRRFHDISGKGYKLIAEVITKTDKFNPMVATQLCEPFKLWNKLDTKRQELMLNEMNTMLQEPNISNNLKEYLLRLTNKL
# [22] = molecular target: T7, Kappa-type opioid receptor (Homo sapiens, UniProt P41145); assay type: functional
# [23] = molecular target: Beta-galactosidase (Escherichia coli, UniProt Q8VNN2); assay type: functional
# [24] = molecular target: T7, Kappa-type opioid receptor; assay type: functional; remark: listed apart in the source
# [25] = system: CHO; test: CHO cell viability loss, potency – luminescence, cytotoxicity control for TLR9-MyD88 binding inhibitor project, dose response (AID 588339); assay type: functional, cell-based, hamster; conditions: Cricetulus griseus;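 further: CHO cells stably coexpressing TLR9 and MyD88 fusions from primary screen; compound exposure lasted 48 hours before viability readout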
# [26] = molecular target: Beta Lactamase (Pseudomonas aeruginosa, UniProt Q932Y6); test: BLA reporter interference, concentration series – BLA reporter cells, FRET fluorescence, artefact control for TLR9-MyD88 binding inhibitor project, dose response (AID 588341); assay type: cell-based;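 further: cell based assay in CHO-K1 cells stably expressing beta-lactamase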
# [27] = system: INS1; test: INS-1E survival protection against cytokine death – cell-based, luminescence, retest, dose response (AID 449756); assay type: functional; conditions: Rattus norvegicus;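 further: cell death triggered by IL-1 beta plus TNF-alpha plus IFN-gamma mixture; protective hits raise ATP signal compared with cytokine alone wells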
# [28] = molecular target: Dual specificity tyrosine-phosphorylation-regulated kinase 1A (Rattus norvegicus, UniProt Q63470); assay type: biochemical, Homo sapiens
# [29] = Fluorescence-based cell-based high throughput dose response assay for inhibitors of the interaction of nucleotide-binding oligomerization domain containing 2 (NOD2) and the receptor-interacting serine-threonine kinase 2 (RIPK2).; assay type: functional; conditions: Homo sapiens
# T7 sequence (P41145 whole entry): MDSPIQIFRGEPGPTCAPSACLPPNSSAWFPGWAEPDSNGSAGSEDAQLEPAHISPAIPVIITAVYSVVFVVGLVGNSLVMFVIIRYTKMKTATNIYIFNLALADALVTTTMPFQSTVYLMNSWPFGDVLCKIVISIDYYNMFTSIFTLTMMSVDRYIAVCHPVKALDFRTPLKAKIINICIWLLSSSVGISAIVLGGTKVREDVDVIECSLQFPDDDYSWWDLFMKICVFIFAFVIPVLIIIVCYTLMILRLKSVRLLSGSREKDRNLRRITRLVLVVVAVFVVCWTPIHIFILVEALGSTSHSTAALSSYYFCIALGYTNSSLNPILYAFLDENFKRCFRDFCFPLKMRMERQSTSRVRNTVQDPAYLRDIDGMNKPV
# T1 sequence (Q9HC97 whole entry): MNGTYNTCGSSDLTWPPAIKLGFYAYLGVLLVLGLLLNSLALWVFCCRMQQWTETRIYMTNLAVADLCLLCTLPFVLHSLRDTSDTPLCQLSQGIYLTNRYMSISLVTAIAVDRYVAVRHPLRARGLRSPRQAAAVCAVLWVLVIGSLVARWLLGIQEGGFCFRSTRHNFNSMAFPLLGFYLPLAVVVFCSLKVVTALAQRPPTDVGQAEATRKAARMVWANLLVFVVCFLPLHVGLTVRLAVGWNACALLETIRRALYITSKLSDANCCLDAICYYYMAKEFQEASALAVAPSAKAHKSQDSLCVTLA
# Sequence of Beta Lactamase (Q932Y6 whole entry): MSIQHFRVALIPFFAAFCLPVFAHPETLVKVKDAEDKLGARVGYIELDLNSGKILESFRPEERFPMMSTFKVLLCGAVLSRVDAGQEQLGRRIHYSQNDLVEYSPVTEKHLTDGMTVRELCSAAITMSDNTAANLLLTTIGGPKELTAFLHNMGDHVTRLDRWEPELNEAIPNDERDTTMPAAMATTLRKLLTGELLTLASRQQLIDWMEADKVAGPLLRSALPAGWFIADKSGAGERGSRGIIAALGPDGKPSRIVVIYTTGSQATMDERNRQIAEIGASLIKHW
# Sequence of Beta-galactosidase (Q8VNN2 whole entry): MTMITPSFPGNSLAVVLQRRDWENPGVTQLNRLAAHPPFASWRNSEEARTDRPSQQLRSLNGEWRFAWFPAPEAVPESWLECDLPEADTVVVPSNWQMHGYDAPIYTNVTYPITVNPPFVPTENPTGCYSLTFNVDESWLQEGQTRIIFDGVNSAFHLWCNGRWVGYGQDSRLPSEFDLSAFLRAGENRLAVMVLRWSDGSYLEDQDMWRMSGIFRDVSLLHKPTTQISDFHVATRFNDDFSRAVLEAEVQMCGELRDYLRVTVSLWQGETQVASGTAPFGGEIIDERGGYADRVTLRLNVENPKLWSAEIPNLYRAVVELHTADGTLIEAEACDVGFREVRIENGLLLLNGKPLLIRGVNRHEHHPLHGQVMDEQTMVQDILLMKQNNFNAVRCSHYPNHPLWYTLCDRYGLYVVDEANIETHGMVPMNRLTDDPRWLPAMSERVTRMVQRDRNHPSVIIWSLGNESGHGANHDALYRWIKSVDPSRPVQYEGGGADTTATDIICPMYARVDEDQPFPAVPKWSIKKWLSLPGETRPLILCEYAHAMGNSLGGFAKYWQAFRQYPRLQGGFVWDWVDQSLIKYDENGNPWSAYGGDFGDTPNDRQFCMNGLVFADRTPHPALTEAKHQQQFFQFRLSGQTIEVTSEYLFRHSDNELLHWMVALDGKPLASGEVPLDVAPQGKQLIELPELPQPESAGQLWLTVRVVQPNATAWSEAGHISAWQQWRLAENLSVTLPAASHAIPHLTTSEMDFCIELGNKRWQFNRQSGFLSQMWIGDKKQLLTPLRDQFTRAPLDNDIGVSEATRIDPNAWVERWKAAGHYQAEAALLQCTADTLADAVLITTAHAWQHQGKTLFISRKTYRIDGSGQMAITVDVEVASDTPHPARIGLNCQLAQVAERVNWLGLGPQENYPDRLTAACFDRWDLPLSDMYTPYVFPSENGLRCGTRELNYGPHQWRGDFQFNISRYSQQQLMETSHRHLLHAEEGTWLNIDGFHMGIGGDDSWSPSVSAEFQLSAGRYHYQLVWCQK
# Sequence of Envelope glycoprotein gp160 (Q6QLK5 whole entry, the tested form may be a part): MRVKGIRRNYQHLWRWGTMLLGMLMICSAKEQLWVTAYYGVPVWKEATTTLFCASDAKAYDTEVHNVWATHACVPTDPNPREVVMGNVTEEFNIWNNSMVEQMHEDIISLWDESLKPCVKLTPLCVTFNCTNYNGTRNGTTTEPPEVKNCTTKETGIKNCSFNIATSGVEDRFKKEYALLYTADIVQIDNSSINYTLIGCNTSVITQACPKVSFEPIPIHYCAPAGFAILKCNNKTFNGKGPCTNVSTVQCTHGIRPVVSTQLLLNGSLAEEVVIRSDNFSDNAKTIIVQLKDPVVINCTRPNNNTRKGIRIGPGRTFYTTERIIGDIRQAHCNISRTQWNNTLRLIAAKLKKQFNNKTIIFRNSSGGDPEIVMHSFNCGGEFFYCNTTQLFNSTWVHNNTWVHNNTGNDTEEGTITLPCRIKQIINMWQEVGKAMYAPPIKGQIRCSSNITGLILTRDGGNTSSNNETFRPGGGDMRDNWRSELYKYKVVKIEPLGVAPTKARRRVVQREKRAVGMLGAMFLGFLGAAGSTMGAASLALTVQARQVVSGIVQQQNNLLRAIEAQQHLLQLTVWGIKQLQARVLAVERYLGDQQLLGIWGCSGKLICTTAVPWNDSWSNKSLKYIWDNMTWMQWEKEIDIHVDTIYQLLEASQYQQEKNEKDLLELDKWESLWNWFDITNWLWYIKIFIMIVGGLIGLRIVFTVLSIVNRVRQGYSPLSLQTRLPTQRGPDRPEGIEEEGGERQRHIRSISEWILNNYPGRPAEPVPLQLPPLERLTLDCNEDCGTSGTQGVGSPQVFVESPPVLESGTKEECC
# Sequence of G-protein coupled receptor 55 (Q9Y2T6 whole entry, the tested form may be a part): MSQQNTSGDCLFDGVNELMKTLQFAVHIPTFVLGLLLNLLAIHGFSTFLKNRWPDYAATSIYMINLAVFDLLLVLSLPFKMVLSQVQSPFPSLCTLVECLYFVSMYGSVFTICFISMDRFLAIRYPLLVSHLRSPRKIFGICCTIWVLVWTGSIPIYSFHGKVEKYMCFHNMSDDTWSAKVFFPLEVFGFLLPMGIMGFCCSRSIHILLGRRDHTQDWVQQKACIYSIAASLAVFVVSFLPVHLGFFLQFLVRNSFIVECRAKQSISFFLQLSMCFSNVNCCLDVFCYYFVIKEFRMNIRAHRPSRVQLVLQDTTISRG
structure (smiles),measurement,setting,value
CNC(=S)N/N=C/c1c(C(=O)OC)cnn1-c1ccc(Cl)cc1,IC50,[1],1.25 µM (active)
same,IC50,[2],4.11 µM (active)
same,IC50,[3],> 32 µM (inactive)
Oc1cc(-c2ccccc2)nc2c(-c3ccccc3)c(C(F)(F)F)nn12,IC50,[4],17.5 µM (active)
same,EC50,[5],3.47 µM (active)
same,IC50,[6],> 50 µM (active)
same,EC50,[7],4.84 µM (active)
same,AC50,[8],54.1 µM (active)
CCOc1cc(/C=C2/NC(=O)NC2=O)cc(Br)c1OCc1ccc(C(=O)O)cc1,IC50,[9],4.2 µM (active)
same,IC50,[10],8.82 µM (active)
same,IC50,[11],5.76 µM (active)
same,IC50,[12],2.39 µM (active)
same,IC50,[13],5.9 µM (active)
CN(C)CCCN1c2ccc([N+](=O)[O-])cc2CCc2cc([N+](=O)[O-])ccc21,CC50,[14],18.5 µM (active)
same,CC50,[15],15.4 µM (active)
same,CC50,[16],21.6 µM (active)
same,IC50,[17],8.59 µM (active)
same,IC50,[18],13.9 µM (active)
same,IC50,[19],11.4 µM (active)
same,IC50,[20],10.8 µM (active)
N#CC(C#N)=C1C=CC=CN1/C(=C\c1ccco1)C(=O)c1ccccc1,IC50,[21],65.2 µM (active)
same,IC50,[22],4.86 µM (active)
same,EC50,[23],> 31.5 µM (inactive)
same,IC50,[24],18.9 µM
same,IC50,[25],1.64 µM (active)
same,IC50,[26],15.9 µM (inactive)
same,AC50,[27],7.4 µM (active)
same,AC50,[28],5.46 µM (active)
same,IC50,[29],1.02 µM (active)

# Reference: ChEMBL document CHEMBL1201862, “PubChem BioAssay data set” (2004)
